Reference: patent US6737383B1, “Herbicidal oxadiazolidines” (priority 1999, dated 2004)

Legend:
[1] = tested on: bamyardgrass; assay: Test B flood test barnyardgrass; type: in vivo, Echinochloa crus-galli
Method in brief: (§1)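 Read-out is a visual response score from 0 (no effect) to 10 (complete control), assigned by comparison with untreated controls. Treatment was applied at the 2-leaf stage, and plants stayed in the greenhouse for twelve to sixteen days before scoring.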

[2] = tested on: soybean; assay: Test B pre/postemergence soybean; type: in vivo, Glycine max
Method in brief: (§2)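 Test chemicals in a non-phytotoxic solvent mixture with surfactant were sprayed preemergence onto planted seeds and postemergence onto plants 2 to 18 cm tall (1- to 4-leaf stage). After twelve to sixteen days in a greenhouse, injury was visually rated against untreated controls from 0 (no effect) to 10 (complete control).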

[3] = tested on: cocklebur; assay: Test B pre/postemergence cocklebur; type: in vivo, Xanthium strumarium
Method in brief: as §2

[4] = tested on: rape; assay: Test B pre/postemergence rape; type: in vivo, Brassica napus
Method in brief: as §2

[5] = tested on: sugar beet; assay: Test B pre/postemergence sugar beet; type: in vivo, Beta vulgaris
Method in brief: as §2

[6] = tested on: rice; assay: Test B flood test rice; type: in vivo, Oryza sativa
Method in brief: as §1

[7] = tested on: purple nutsedge; assay: Test B pre/postemergence purple nutsedge; type: in vivo, Cyperus rotundus
Method in brief: as §2

[8] = tested on: surinam grass; assay: Test B pre/postemergence surinam grass; type: in vivo, Brachiaria decumbens
Method in brief: as §2

[9] = tested on: pigweed; assay: Test B pre/postemergence pigweed; type: in vivo, Amaranthus retroflexus
Method in brief: as §2

[10] = tested on: duck salad; assay: Test B flood test duck salad; type: in vivo, Heteranthera limosa
Method in brief: as §1

[11] = tested on: blackgrass; assay: Test B pre/postemergence blackgrass; type: in vivo, Alopecurus myosuroides
Method in brief: as §2

[12] = tested on: wheat; assay: Test B pre/postemergence wheat; type: in vivo, Triticum aestivum
Method in brief: as §2

[13] = tested on: morningglory; assay: Test B pre/postemergence morningglory; type: in vivo, Ipomoea hederacea
Method in brief: as §2

[14] = tested on: velvetleaf; assay: Test B pre/postemergence velvetleaf; type: in vivo, Abutilon theophrasti
Method in brief: as §2

[15] = tested on: giant foxtail; assay: Test B pre/postemergence giant foxtail; type: in vivo, Setaria faberii
Method in brief: as §2

[16] = tested on: smallflower flatsedge; assay: Test B flood test smallflower flatsedge; type: in vivo, Cyperus difformis
Method in brief: as §1

[17] = tested on: corn; assay: Test B pre/postemergence corn; type: in vivo, Zea mays
Method in brief: as §2

[18] = tested on: wild oat; assay: Test B pre/postemergence wild oat; type: in vivo, Avena fatua
Method in brief: as §2

[19] = tested on: bedstraw; assay: Test B pre/postemergence bedstraw; type: in vivo, Galium aparine
Method in brief: as §2

[20] = tested on: crabgrass; assay: Test B pre/postemergence crabgrass; type: in vivo, Digitaria sanguinalis
Method in brief: as §2

[21] = Rate 62 g/ha, headed Pre-emergence (flood test species), scale 0 to 10 (0 no effect, 10 complete control)
[22] = Rate 125 g/ha, Pre-emergence, flood test species, scale 0 to 10 where 0 is no effect and 10 is complete control
[23] = Rate 250 g/ha, Pre-emergence, flood-test species, scale 0 to 10, 0 is no effect, 10 is complete control
[24] = Rate 500 g/ha, Pre-emergence, flood test species, scale 0 to 10 (0 no effect, 10 complete control)
[25] = Preemergence, Rate 62 g/ha, scale of 0 to 10 where 0 is no effect and 10 is complete control
[26] = Preemergence, Rate 250 g/ha, scale of 0 to 10 where 0 is no effect and 10 is complete control
[27] = Preemergence, Rate 500 g/ha, scale of 0 to 10 where 0 is no effect and 10 is complete control
[28] = Rate 62 g/ha, Postemergence, scale of 0 to 10 where 0 is no effect and 10 is complete control
[29] = Rate 125 g/ha, Preemergence, scale of 0 to 10 where 0 is no effect and 10 is complete control
[30] = Rate 500 g/ha, Postemergence, scale 0 to 10, 0 no effect, 10 complete control
[31] = Rate 125 g/ha, Postemergence, scale 0 to 10

Cc1ccccc1-n1c(=O)on(C(=O)N(c2ccc(F)cc2)C(C)C2CC2)c1=O (centres unmarked) [Compound 240]
5: Blackgrass plant response rating [11, 30] | Morningglory plant response rating [13, 28] | Giant foxtail plant response rating [15, 25] | Giant foxtail plant response rating [15, 29] | Bedstraw plant response rating [19, 30]
10: Plant response rating (0 to 10; 0 is no effect, 10 is complete control), Morningglory ([13]; Rate 250 g/ha, Postemergence) | Morningglory plant response rating [13, 30] | Giant foxtail plant response rating [15, 26] | Plant response rating, Giant foxtail [15, 27]
1: Cocklebur plant response rating [3, 31] | Plant response rating (0 to 10; 0 is no effect, 10 is complete control), Cocklebur ([3]; Rate 250 g/ha, Postemergence) | Cocklebur plant response rating [3, 30]
2: Plant response rating (0 to 10; 0 is no effect, 10 is complete control), Redroot pigweed ([9]; Rate 250 g/ha, Postemergence) | Plant response rating, Blackgrass [11, 27] | Wheat plant response rating [12, 30] | Plant response rating, Velvetleaf [14, 27] | Giant foxtail plant response rating [15, 30] | Wild oats plant response rating [18, 30] | Crabgrass plant response rating [20, 25] | Plant response rating (0 to 10; 0 is no effect, 10 is complete control), Crabgrass ([20]; Rate 250 g/ha, Postemergence)
3: Soybean plant response rating [2, 30] | Sugarbeets plant response rating [5, 30] | Plant response rating, B. signalgrass [8, 27] | Velvetleaf plant response rating [14, 30] | Bedstraw plant response rating [19, 31] | Plant response rating (0 to 10; 0 is no effect, 10 is complete control), Bedstraw ([19]; Rate 250 g/ha, Postemergence)
7: Redroot pigweed plant response rating [9, 30]
0: Barnyardgrass plant response rating [1, 21] | Barnyardgrass plant response rating [1, 22] | Barnyardgrass plant response rating [1, 23] | Barnyardgrass plant response rating [1, 24] | Soybean plant response rating [2, 25] | Soybean plant response rating [2, 26] | Plant response rating, Soybean [2, 27] | Soybean plant response rating [2, 28] | Soybean plant response rating [2, 29] | Cocklebur plant response rating [3, 25] | Cocklebur plant response rating [3, 26] | Plant response rating, Cocklebur [3, 27] | Cocklebur plant response rating [3, 28] | Cocklebur plant response rating [3, 29] | Rape plant response rating [4, 25] | Rape plant response rating [4, 26] | Plant response rating, Rape [4, 27] | Rape plant response rating [4, 28] | Rape plant response rating [4, 29] | Plant response rating (0 to 10; 0 is no effect, 10 is complete control), Rape ([4]; Rate 250 g/ha, Postemergence) | Rape plant response rating [4, 30] | Sugarbeets plant response rating [5, 25] | Sugarbeets plant response rating [5, 26] | Plant response rating, Sugarbeets [5, 27] | Sugarbeets plant response rating [5, 28] | Sugarbeets plant response rating [5, 29] | Rice plant response rating [6, 21] | Rice plant response rating [6, 22] | Rice plant response rating [6, 23] | Rice plant response rating [6, 24] | Nutsedge plant response rating [7, 26] | Nutsedge plant response rating [7, 28] | Plant response rating (0 to 10; 0 is no effect, 10 is complete control), Nutsedge ([7]; Rate 250 g/ha, Postemergence) | Nutsedge plant response rating [7, 30] | B. signalgrass plant response rating [8, 25] | B. signalgrass plant response rating [8, 26] | B. signalgrass plant response rating [8, 28] | B. signalgrass plant response rating ([8]; Rate 125 g/ha, Postemergence, scale 0 (no effect) to 10 (complete control)) | B. signalgrass plant response rating [8, 29] | Plant response rating (0 to 10; 0 is no effect, 10 is complete control), B. signalgrass ([8]; Rate 250 g/ha, Postemergence) | B. signalgrass plant response rating [8, 30] | Redroot pigweed plant response rating [9, 25] | Redroot pigweed plant response rating [9, 26] | Plant response rating, Redroot pigweed [9, 27] | Redroot pigweed plant response rating [9, 28] | Redroot pigweed plant response rating [9, 29] | Ducksalad plant response rating [10, 21] | Ducksalad plant response rating [10, 22] | Ducksalad plant response rating [10, 23] | Ducksalad plant response rating [10, 24] | Blackgrass plant response rating [11, 25] | Blackgrass plant response rating [11, 26] | Blackgrass plant response rating [11, 28] | Blackgrass plant response rating [11, 31] | Blackgrass plant response rating [11, 29] | Plant response rating (0 to 10; 0 is no effect, 10 is complete control), Blackgrass ([11]; Rate 250 g/ha, Postemergence) | Wheat plant response rating [12, 25] | Wheat plant response rating [12, 26] | Plant response rating, Wheat [12, 27] | Wheat plant response rating [12, 28] | Wheat plant response rating [12, 29] | Morningglory plant response rating [13, 25] | Morningglory plant response rating [13, 26] | Plant response rating, Morningglory [13, 27] | Morningglory plant response rating [13, 29] | Velvetleaf plant response rating [14, 25] | Velvetleaf plant response rating [14, 26] | Velvetleaf plant response rating [14, 28] | Velvetleaf plant response rating [14, 29] | Giant foxtail plant response rating [15, 28] | Plant response rating (0 to 10; 0 is no effect, 10 is complete control), Giant foxtail ([15]; Rate 250 g/ha, Postemergence) | S. Flatsedge plant response rating [16, 21] | S. Flatsedge plant response rating [16, 22] | S. Flatsedge plant response rating [16, 23] | S. Flatsedge plant response rating [16, 24] | Corn plant response rating [17, 25] | Corn plant response rating [17, 26] | Plant response rating, Corn [17, 27] | Corn plant response rating [17, 28] | Corn plant response rating [17, 31] | Corn plant response rating [17, 29] | Plant response rating (0 to 10; 0 is no effect, 10 is complete control), Corn ([17]; Rate 250 g/ha, Postemergence) | Corn plant response rating [17, 30] | Wild oats plant response rating [18, 25] | Wild oats plant response rating [18, 26] | Plant response rating, Wild oats [18, 27] | Wild oats plant response rating [18, 28] | Wild oats plant response rating [18, 29] | Bedstraw plant response rating [19, 25] | Bedstraw plant response rating [19, 26] | Plant response rating, Bedstraw [19, 27] | Bedstraw plant response rating [19, 28] | Bedstraw plant response rating [19, 29] | Crabgrass plant response rating [20, 28]
9: Crabgrass plant response rating [20, 26] | Plant response rating, Crabgrass [20, 27]
4: Crabgrass plant response rating [20, 29] | Crabgrass plant response rating [20, 30]
